Key:
Assay in all cases: cells
Settings in all cases: Homo sapiens
SF-126 = type: functional, cell-based;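 also: growth inhibition of human SF126 cells, read out with a cell viability assay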
Description: SANGER: Inhibition of human SF126 cell growth in a cell viability assay.

TE-6 = type: functional, cell-based;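 also: growth inhibition of TE-6 cells, read out with a cell viability assay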
Description: SANGER: Inhibition of human TE-6 cell growth in a cell viability assay.

MMAC-SF = type: functional, cell-based;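 also: growth inhibition of human MMAC-SF cells, read out with a cell viability assay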
Description: SANGER: Inhibition of human MMAC-SF cell growth in a cell viability assay.

HCE-T = type: functional, cell-based;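 also: cell viability assay read-out, reporting inhibition of HCE-T cell growth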
Description: SANGER: Inhibition of human HCE-T cell growth in a cell viability assay.

ES4 = type: functional, cell-based;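 also: growth inhibition of human ES4 cells, read out by a cell viability assay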
Description: SANGER: Inhibition of human ES4 cell growth in a cell viability assay.

ETK-1 = type: functional, cell-based;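 also: growth inhibition of human ETK-1 cells, read out with a cell viability assay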
Description: SANGER: Inhibition of human ETK-1 cell growth in a cell viability assay.

KLE = type: functional, cell-based;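 also: growth inhibition of human KLE cells, read out with a cell viability assay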
Description: SANGER: Inhibition of human KLE cell growth in a cell viability assay.

ES1 = type: functional, cell-based;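 also: growth inhibition of ES1 cells, read out with a cell viability assay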
Description: SANGER: Inhibition of human ES1 cell growth in a cell viability assay.

A388 = type: functional, cell-based;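 also: growth inhibition of human A388 cells, read out with a cell viability assay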
Description: SANGER: Inhibition of human A388 cell growth in a cell viability assay.

ML-2 = type: functional, cell-based;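 also: growth inhibition of ML-2 cells, measured with a cell viability readout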
Description: SANGER: Inhibition of human ML-2 cell growth in a cell viability assay.

KNS-81-FD = type: functional, cell-based;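 also: growth inhibition of KNS-81-FD cells, read out with a cell viability assay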
Description: SANGER: Inhibition of human KNS-81-FD cell growth in a cell viability assay.

SK-PN-DW = type: functional, cell-based;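 also: growth inhibition measured with a viability assay on these cells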
Description: SANGER: Inhibition of human SK-PN-DW cell growth in a cell viability assay.

NB6 = type: functional, cell-based
Description: SANGER: Inhibition of human NB6 cell growth in a cell viability assay.

ES3 = type: functional, cell-based;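 also: growth inhibition of ES3 cells, read out with a cell viability assay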
Description: SANGER: Inhibition of human ES3 cell growth in a cell viability assay.

TGBC24TKB = type: functional, cell-based;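 also: growth inhibition of human TGBC24TKB cells, read out with a cell viability assay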
Description: SANGER: Inhibition of human TGBC24TKB cell growth in a cell viability assay.

MFH-ino = type: functional, cell-based;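 also: growth inhibition of human MFH-ino cells, read out by a cell viability assay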
Description: SANGER: Inhibition of human MFH-ino cell growth in a cell viability assay.

L-428 = type: functional, cell-based
Description: SANGER: Inhibition of human L-428 cell growth in a cell viability assay.

Ramos-2G6-4C10 = type: functional, cell-based;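 also: growth inhibition of the cell line, measured by a cell viability read-out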
Description: SANGER: Inhibition of human Ramos-2G6-4C10 cell growth in a cell viability assay.

BB65-RCC = type: functional, cell-based;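 also: growth inhibition of the cell line, measured with a cell viability assay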
Description: SANGER: Inhibition of human BB65-RCC cell growth in a cell viability assay.

COLO-824 = type: functional, cell-based
Description: SANGER: Inhibition of human COLO-824 cell growth in a cell viability assay.

BB30-HNC = type: functional, cell-based;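 also: growth inhibition of the cultured cell line, read out by a cell viability assay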
Description: SANGER: Inhibition of human BB30-HNC cell growth in a cell viability assay.

NCI-H1395 = type: functional, cell-based;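 also: cell viability assay read-out quantifying reduced proliferation of human NCI-H1395 cells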
Description: SANGER: Inhibition of human NCI-H1395 cell growth in a cell viability assay.

HuTu80 = type: functional, cell-based, HUTU-80;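 also: growth inhibition of HuTu80 human cells, determined with a cell viability readout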
Description: SANGER: Inhibition of human HUTU-80 cell growth in a cell viability assay.

HCE-4 = type: functional, cell-based;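 also: cell viability assay measuring inhibition of growth in the human HCE-4 cell line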
Description: SANGER: Inhibition of human HCE-4 cell growth in a cell viability assay.

SNB-75 = type: functional, cell-based;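 also: cell viability assay measuring growth inhibition of human SNB-75 cells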
Description: SANGER: Inhibition of human SNB75 cell growth in a cell viability assay.

LOX IMVI = type: functional, cell-based
Description: SANGER: Inhibition of human LOXIMVI cell growth in a cell viability assay.

GT3TKB = type: functional, cell-based;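 also: growth inhibition of the cell line, read out with a cell viability assay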
Description: SANGER: Inhibition of human GT3TKB cell growth in a cell viability assay.

HT = type: functional, cell-based
Description: SANGER: Inhibition of human HT cell growth in a cell viability assay.

LS-1034 = type: functional, cell-based
Description: SANGER: Inhibition of human LS-1034 cell growth in a cell viability assay.

KM12 = type: functional, cell-based;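 also: KM12 cell growth inhibition, read out with a cell viability assay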
Description: SANGER: Inhibition of human KM12 cell growth in a cell viability assay.

LB831-BLC = type: functional, cell-based;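 also: growth inhibition of LB831-BLC cells, read out with a cell viability assay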
Description: SANGER: Inhibition of human LB831-BLC cell growth in a cell viability assay.

697 = type: functional, cell-based
Description: SANGER: Inhibition of human 697 cell growth in a cell viability assay.

KM-H2 = type: functional, cell-based;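 also: growth inhibition of KM-H2 cells, read out by a cell viability assay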
Description: SANGER: Inhibition of human KM-H2 cell growth in a cell viability assay.

ACN = type: functional, cell-based;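 also: growth inhibition of the human ACN cell line, read out via cell viability testing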
Description: SANGER: Inhibition of human ACN cell growth in a cell viability assay.

K562 = type: functional, cell-based
Description: SANGER: Inhibition of human K-562 cell growth in a cell viability assay.

U-87 MG = type: functional, cell-based, U-87MG ATCC;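 also: growth inhibition of the cells measured with a viability assay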
Description: SANGER: Inhibition of human U-87-MG cell growth in a cell viability assay.

RPMI-8866 = type: functional, cell-based
Description: SANGER: Inhibition of human RPMI-8866 cell growth in a cell viability assay.

C2BBe1 = type: functional, cell-based;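 also: growth inhibition of C2BBe1 cells, read out through a viability assay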
Description: SANGER: Inhibition of human C2BBe1 cell growth in a cell viability assay.

IA-LM = type: functional, cell-based;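 also: cell viability assay measuring growth inhibition of human IA-LM cells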
Description: SANGER: Inhibition of human IA-LM cell growth in a cell viability assay.

DOHH-2 = type: functional, cell-based;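 also: growth inhibition of human DOHH-2 cells, read out with a cell viability assay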
Description: SANGER: Inhibition of human DOHH-2 cell growth in a cell viability assay.

QIMR-WIL = type: functional, cell-based;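 also: growth inhibition of QIMR-WIL cells, read out with a cell viability assay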
Description: SANGER: Inhibition of human QIMR-WIL cell growth in a cell viability assay.

NCI-H226 = type: functional, cell-based;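 also: cell viability read-out used to gauge growth inhibition of the cells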
Description: SANGER: Inhibition of human NCI-H226 cell growth in a cell viability assay.

LS-411N = type: functional, cell-based
MHH-PREB-1 = type: functional, cell-based;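 also: cell viability assay measuring inhibition of proliferation of human MHH-PREB-1 cells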
Description: SANGER: Inhibition of human MHH-PREB-1 cell growth in a cell viability assay.

NB5 = type: functional, cell-based;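 also: growth inhibition of NB5 cells, read out as cell viability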
Description: SANGER: Inhibition of human NB5 cell growth in a cell viability assay.

TK-10 = type: functional, cell-based;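 also: growth inhibition of TK-10 cells, read out in a cell viability assay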
Description: SANGER: Inhibition of human TK10 cell growth in a cell viability assay.

NB69 = type: functional, cell-based;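 also: growth inhibition of NB69 cells, determined by a cell viability assay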
Description: SANGER: Inhibition of human NB69 cell growth in a cell viability assay.

UACC-257 = type: functional, cell-based
Description: SANGER: Inhibition of human UACC-257 cell growth in a cell viability assay.

SHP77 = type: functional, cell-based, SHP-77;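 also: growth inhibition of human SHP-77 cells measured by a cell viability assay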
Description: SANGER: Inhibition of human SHP-77 cell growth in a cell viability assay.

CCRF-CEM = type: functional, cell-based;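 also: inhibition of CCRF-CEM cell growth, measured by a cell viability assay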
Description: SANGER: Inhibition of human CCRF-CEM cell growth in a cell viability assay.

A101D = type: functional, cell-based;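 also: growth inhibition of the cell line, measured with a viability assay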
Description: SANGER: Inhibition of human A101D cell growth in a cell viability assay.

SNU-C2B = type: functional, cell-based;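 also: cell viability readout used to measure compound-driven suppression of SNU-C2B cell proliferation, IC50 marking half-maximal growth inhibition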
Description: SANGER: Inhibition of human SNU-C2B cell growth in a cell viability assay.

SW 954 = type: functional, cell-based;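 also: growth inhibition of SW954 human cancer cells, read out as cell viability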
Description: SANGER: Inhibition of human SW954 cell growth in a cell viability assay.

OCI-AML2 = type: functional, cell-based;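 also: growth inhibition of OCI-AML2 cells, read out with a cell viability assay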
Description: SANGER: Inhibition of human OCI-AML2 cell growth in a cell viability assay.

DU-4475 = type: functional, cell-based
Description: SANGER: Inhibition of human DU-4475 cell growth in a cell viability assay.

A4-Fuk = type: functional, cell-based;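 also: growth inhibition of A4-Fuk cells, read out by a cell viability assay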
Description: SANGER: Inhibition of human A4-Fuk cell growth in a cell viability assay.

LB1047-RCC = type: functional, cell-based;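 also: inhibition of cell growth, determined with a cell viability assay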
Description: SANGER: Inhibition of human LB1047-RCC cell growth in a cell viability assay.

LXF-289 cell line = type: functional, cell-based
Description: SANGER: Inhibition of human LXF-289 cell growth in a cell viability assay.

JVM-3 = type: functional, cell-based;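 also: growth inhibition of human JVM-3 cells, read out with a cell viability assay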
Description: SANGER: Inhibition of human JVM-3 cell growth in a cell viability assay.

TE-10 = type: functional, cell-based;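 also: growth inhibition of TE-10 cells, measured by a cell viability assay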
Description: SANGER: Inhibition of human TE-10 cell growth in a cell viability assay.

GI-1 = type: functional, cell-based;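 also: growth inhibition of human GI-1 cells, measured with a cell viability readout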
Description: SANGER: Inhibition of human GI-1 cell growth in a cell viability assay.

ONS-76 = type: functional, cell-based;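 also: growth inhibition of human ONS-76 cells, read out with a cell viability assay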
Description: SANGER: Inhibition of human ONS-76 cell growth in a cell viability assay.

COLO-668 = type: functional, cell-based
Description: SANGER: Inhibition of human COLO-668 cell growth in a cell viability assay.

DMS-114 = type: functional, cell-based
COLO-829 = type: functional, cell-based
Description: SANGER: Inhibition of human COLO-829 cell growth in a cell viability assay.

SMILES: CCNC(=O)c1noc(-c2cc(C(C)C)c(O)cc2O)c1-c1ccc(CN2CCOCC2)cc1 [LUMINESPIB]
- IC50 (SF-126): 50.1 nM
- IC50 (TE-6): 246 nM
- IC50 (MMAC-SF): 43 nM
- IC50 (HCE-T): 28.6 nM
- IC50 (ES4): 15 nM
- IC50 (ETK-1): 28.1 nM
- IC50 (KLE): 162 nM
- IC50 (ES1): 2.66 nM
- IC50 (A388): 21.2 nM
- IC50 (ML-2): 36.7 nM
- IC50 (KNS-81-FD): 69.2 nM
- IC50 (SK-PN-DW): 55.9 nM
- IC50 (NB6): > 256 nM
- IC50 (ES3): 87.6 nM
- IC50 (TGBC24TKB): > 256 nM
- IC50 (MFH-ino): 12.9 nM
- IC50 (L-428): 77 nM
- IC50 (Ramos-2G6-4C10): 76.5 nM
- IC50 (BB65-RCC): 12 nM
- IC50 (COLO-824): 110 nM
- IC50 (BB30-HNC): 9.52 nM
- IC50 (NCI-H1395): > 256 nM
- IC50 (HuTu80): 20 nM
- IC50 (HCE-4): 21.4 nM
- IC50 (SNB-75): 24.7 nM
- IC50 (LOX IMVI): 23.2 nM
- IC50 (GT3TKB): 12 nM
- IC50 (HT): 226 nM
- IC50 (LS-1034): 41.9 nM
- IC50 (KM12): 14 nM
- IC50 (LB831-BLC): 32.2 nM
- IC50 697: 20.3 nM
- IC50 (KM-H2): 72.4 nM
- IC50 (ACN): 16.6 nM
- IC50 (K562): 53.9 nM
- IC50 (U-87 MG): 32.9 nM
- IC50 (RPMI-8866): > 256 nM
- IC50 (C2BBe1): 199 nM
- IC50 (IA-LM): 10.9 nM
- IC50 (DOHH-2): 186 nM
- IC50 (QIMR-WIL): 12.7 nM
- IC50 (NCI-H226): 59.9 nM
- IC50 (LS-411N): 37.3 nM
- IC50 (MHH-PREB-1): 93.1 nM
- IC50 (NB5): 36.1 nM
- IC50 (TK-10): 13.8 nM
- IC50 (NB69): 11 nM
- IC50 (UACC-257): 75.1 nM
- IC50 (SHP77): 145 nM
- IC50 (CCRF-CEM): 23.3 nM
- IC50 (A101D): 19.9 nM
- IC50 (SNU-C2B): 12.7 nM
- IC50 (SW 954): 10.7 nM
- IC50 (OCI-AML2): 12.8 nM
- IC50 (DU-4475): 21.5 nM
- IC50 (A4-Fuk): 17 nM
- IC50 (LB1047-RCC): 50.3 nM
- IC50 (LXF-289 cell line): 26.7 nM
- IC50 (JVM-3): > 256 nM
- IC50 (TE-10): 19.8 nM
- IC50 (GI-1): 148 nM
- IC50 (ONS-76): 29.5 nM
- IC50 (COLO-668): 79.8 nM
- IC50 (DMS-114): > 256 nM
- IC50 (COLO-829): > 256 nM

SMILES: Cc1n[nH]c2ccc(-c3cncc(OC[C@@H](N)Cc4c[nH]c5ccccc45)c3)cc12 [A-443654]
- IC50 (SF-126): 311 nM
- IC50 (TE-6): 860 nM
- IC50 (MMAC-SF): > 1020 nM
- IC50 (HCE-T): 451 nM
- IC50 (ES4): 37.7 nM
- IC50 (ETK-1): 101 nM
- IC50 (KLE): 226 nM
- IC50 (ES1): 739 nM
- IC50 (A388): 84.3 nM
- IC50 (ML-2): 192 nM
- IC50 (KNS-81-FD): > 1020 nM
- IC50 (SK-PN-DW): 222 nM
- IC50 (NB6): 480 nM
- IC50 (ES3): > 1020 nM
- IC50 (TGBC24TKB): 810 nM
- IC50 (MFH-ino): 236 nM
- IC50 (L-428): > 1020 nM
- IC50 (Ramos-2G6-4C10): 170 nM
- IC50 (BB65-RCC): 597 nM
- IC50 (COLO-824): > 1020 nM
- IC50 (BB30-HNC): 220 nM
- IC50 (NCI-H1395): > 1020 nM
- IC50 (HuTu80): 114 nM
- IC50 (HCE-4): 104 nM
- IC50 (SNB-75): 116 nM
- IC50 (LOX IMVI): 797 nM
- IC50 (GT3TKB): > 1020 nM
- IC50 (HT): 373 nM
- IC50 (LS-1034): 630 nM
- IC50 (KM12): 141 nM
- IC50 (LB831-BLC): 194 nM
- IC50 697: 32.8 nM
- IC50 (KM-H2): > 1020 nM
- IC50 (ACN): 909 nM
- IC50 (K562): 385 nM
- IC50 (U-87 MG): > 1020 nM
- IC50 (RPMI-8866): > 1020 nM
- IC50 (C2BBe1): > 1020 nM
- IC50 (IA-LM): 200 nM
- IC50 (DOHH-2): 240 nM
- IC50 (QIMR-WIL): 256 nM
- IC50 (NCI-H226): > 1020 nM
- IC50 (LS-411N): 87.5 nM
- IC50 (MHH-PREB-1): 271 nM
- IC50 (NB5): 665 nM
- IC50 (TK-10): 226 nM
- IC50 (NB69): 227 nM
- IC50 (UACC-257): > 1020 nM
- IC50 (SHP77): > 1020 nM
- IC50 (CCRF-CEM): 144 nM
- IC50 (A101D): 133 nM
- IC50 (SNU-C2B): 290 nM
- IC50 (SW 954): 177 nM
- IC50 (OCI-AML2): 210 nM
- IC50 (DU-4475): 801 nM
- IC50 (A4-Fuk): 103 nM
- IC50 (LB1047-RCC): 87.2 nM
- IC50 (LXF-289 cell line): 179 nM
- IC50 (JVM-3): > 1020 nM
- IC50 (TE-10): 89.4 nM
- IC50 (GI-1): 187 nM
- IC50 (ONS-76): 444 nM
- IC50 (COLO-668): 405 nM
- IC50 (DMS-114): 983 nM
- IC50 (COLO-829): > 1020 nM
